One assay concerns the target Rhesus PDE2A3 (Macaca mulatta, UniProt B3VTJ2). Kind of assay: PDE2 fluorescence polarization (IMAP FP) inhibition assay, rhesus enzyme. It is filed as biochemical, rhesus macaque. A digest of the protocol:
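Rhesus PDE2A3 came from lysate of transiently transfected AD293 cells, diluted to give 20% substrate conversion. Substrate was 50 nM FAM-cAMP with 1 uM cGMP activator in Tris pH 7.2/MgCl2 buffer, run 60 min at room temperature over 10-point 3-fold dilutions in 1% DMSO. Read-out was IMAP fluorescence polarization (mP) after ≥1 h binding.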

A further assay addresses human PDE2A1 (Homo sapiens (Human), UniProt O00408). Nature of the assay: IMAP FP PDE selectivity panel, human PDE2A1. Type of assay: biochemical. A digest of the protocol:
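GST-tagged human PDE2A1 expressed in insect cells, run at room temperature for 60 min with 50 nM FAM-cAMP containing 1000 nM cGMP, pH 7.2 Tris/MgCl2 buffer. IMAP fluorescence polarization read after binding step.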

The mark [1] stands for this setting: Rhesus PDE2, Lab B, read-out: Rhesus PDE2 Ki (nM) - Lab B.
Setting [2] is: Human PDE2, Lab B, read-out: Human PDE2 Ki (nM) - Lab B.
The mark [3] stands for this setting: Rhesus PDE2, Lab A, read-out: Rhesus PDE2 Ki (nM) - Lab A.
Setting [4] is: Human PDE2, Lab A, read-out: Human PDE2 Ki (nM) - Lab A.

Like-named read-outs stand apart in the source and are kept apart here.

Sequence of human PDE2A1 (O00408 other isoform, or with tags, fused parts or gaps): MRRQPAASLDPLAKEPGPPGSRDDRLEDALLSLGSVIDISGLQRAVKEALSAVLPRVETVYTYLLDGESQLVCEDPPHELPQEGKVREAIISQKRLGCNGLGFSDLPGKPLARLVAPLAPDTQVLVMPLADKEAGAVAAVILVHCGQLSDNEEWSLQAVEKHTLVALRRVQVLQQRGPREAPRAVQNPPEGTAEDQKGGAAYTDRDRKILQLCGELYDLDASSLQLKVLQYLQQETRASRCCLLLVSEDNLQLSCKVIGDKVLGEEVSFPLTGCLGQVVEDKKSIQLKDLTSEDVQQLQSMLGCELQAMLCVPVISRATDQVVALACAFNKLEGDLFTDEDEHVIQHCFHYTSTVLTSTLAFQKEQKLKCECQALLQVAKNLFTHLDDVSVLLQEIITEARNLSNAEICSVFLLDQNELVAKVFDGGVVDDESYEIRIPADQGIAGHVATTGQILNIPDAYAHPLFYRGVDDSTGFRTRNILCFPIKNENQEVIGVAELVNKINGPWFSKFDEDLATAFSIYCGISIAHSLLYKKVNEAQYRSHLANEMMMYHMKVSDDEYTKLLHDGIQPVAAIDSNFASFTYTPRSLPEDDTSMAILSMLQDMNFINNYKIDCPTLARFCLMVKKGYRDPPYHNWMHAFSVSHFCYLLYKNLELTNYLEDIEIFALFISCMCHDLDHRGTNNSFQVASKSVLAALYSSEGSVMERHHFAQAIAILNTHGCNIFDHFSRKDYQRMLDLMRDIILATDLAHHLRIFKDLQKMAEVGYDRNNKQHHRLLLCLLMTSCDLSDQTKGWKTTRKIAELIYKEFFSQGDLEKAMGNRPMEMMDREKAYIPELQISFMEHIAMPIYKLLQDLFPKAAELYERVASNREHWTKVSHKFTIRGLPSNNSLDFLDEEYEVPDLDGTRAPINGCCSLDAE
Sequence of Rhesus PDE2A3 (B3VTJ2 1-941): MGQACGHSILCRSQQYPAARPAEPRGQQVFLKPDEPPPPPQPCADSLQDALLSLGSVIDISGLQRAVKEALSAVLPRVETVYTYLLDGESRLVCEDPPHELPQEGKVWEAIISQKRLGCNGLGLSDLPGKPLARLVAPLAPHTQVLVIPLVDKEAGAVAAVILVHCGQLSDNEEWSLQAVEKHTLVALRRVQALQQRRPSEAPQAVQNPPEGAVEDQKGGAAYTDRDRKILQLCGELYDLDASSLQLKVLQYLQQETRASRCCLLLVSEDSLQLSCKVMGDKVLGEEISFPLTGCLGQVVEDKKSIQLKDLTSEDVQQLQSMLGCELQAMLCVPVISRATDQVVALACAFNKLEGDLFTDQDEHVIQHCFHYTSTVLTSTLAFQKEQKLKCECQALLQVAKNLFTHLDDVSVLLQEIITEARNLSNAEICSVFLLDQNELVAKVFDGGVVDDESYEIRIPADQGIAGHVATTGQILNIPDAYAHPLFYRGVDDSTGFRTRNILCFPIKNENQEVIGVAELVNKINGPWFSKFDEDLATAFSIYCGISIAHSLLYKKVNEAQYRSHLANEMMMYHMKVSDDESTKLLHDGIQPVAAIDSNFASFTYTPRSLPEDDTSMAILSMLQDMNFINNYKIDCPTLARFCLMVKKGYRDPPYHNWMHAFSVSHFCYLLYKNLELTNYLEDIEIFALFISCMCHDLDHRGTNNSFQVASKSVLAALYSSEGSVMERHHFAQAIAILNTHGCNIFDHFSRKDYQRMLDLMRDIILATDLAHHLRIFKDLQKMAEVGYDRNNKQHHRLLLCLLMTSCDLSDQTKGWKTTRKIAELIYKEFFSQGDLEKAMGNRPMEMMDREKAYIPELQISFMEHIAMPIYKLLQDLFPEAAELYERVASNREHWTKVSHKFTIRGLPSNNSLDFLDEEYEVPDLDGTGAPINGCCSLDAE

Take `CC(C)(C)[C@@H](NC(=O)c1cc(=O)[nH]c(C2CC2)n1)c1ccc(OC(F)(F)F)cc1` [Example 463, 2-cyclopropyl-N-{(1R)-2,2-dimethyl-1-[4-(trifluoromethoxy)phenyl]propyl}-6-oxo-1,6-dihydropyrimidine-4-carboxamide]: the figures for the Ki at Rhesus PDE2A3 (setting [1]) and on human PDE2A1 (setting [2]) were 1.2 nM and 0.84 nM, respectively.
Take `CC(C)c1ccc([C@H](NC(=O)c2cc(=O)[nH]c(C3CC3)n2)C2(C)CC2)cc1` [Example 444, 2-cyclopropyl-N-{(R)-(1-methylcyclopropyl)[4-(1-methylethyl)phenyl]methyl}-6-oxo-1,6-dihydropyrimidine-4-carboxamide]: the figures for the Ki at Rhesus PDE2A3 (setting [1]) and on human PDE2A1 (setting [2]) were 2 nM and 2.5 nM, respectively.
For `C[C@@H](NC(=O)c1cc(=O)[nH]c(-c2ncccn2)n1)c1ccc(S(F)(F)(F)(F)F)cc1` [Example 111, 6-oxo-N-{(1R)-1-[4-(pentafluoro-λ^6-sulfanyl)phenyl]ethyl}-1,6-dihydro-2,2′-bipyrimidine-4-carboxamide], the Ki on Rhesus PDE2A3 (setting [3]) was 3.6 nM; on Rhesus PDE2A3 (setting [1]), 3.9 nM; on human PDE2A1 (setting [2]), 4.7 nM.
As for `CCc1nc(C(=O)NC2(c3ccc(OC(F)(F)F)c(F)c3)CC2)cc(=O)[nH]1` [Example 602], the Ki at Rhesus PDE2A3 (setting [1]) was determined as 5.2 nM; at human PDE2A1 (setting [2]), 4.2 nM.
On to `Cc1nc(C(=O)NC(C)c2ccc(C3CC3)cc2)cc(=O)[nH]1` (stereo not shown) [Example 42, N-[1-(4-cyclopropylphenyl)ethyl]-2-methyl-6-oxo-1,6-dihydropyrimidine-4-carboxamide], for which the Ki at Rhesus PDE2A3 (setting [3]) is 72 nM; on human PDE2A1 (setting [4]), 31 nM.
The like results for `CC(C)[C@@H](NC(=O)c1cc(=O)[nH]c(C2CC2)n1)c1ccc(C(F)(F)F)cc1` [Example 193, 2-cyclopropyl-N-{(1R)-2-methyl-1-[4-(trifluoromethyl)phenyl]propyl}-6-oxo-1,6-dihydropyrimidine-4-carboxamide] were, in that order, 3.9 nM and 1.3 nM.
For the compound `O=C(NC1(c2ccc(C(F)(F)F)cc2)COC1)c1cc(=O)[nH]c(-c2ccccc2)n1` [Example 402, 6-oxo-2-phenyl-N-{3-[4-(trifluoromethyl)phenyl]oxetan-3-yl}-1,6-dihydropyrimidine-4-carboxamide], the values for the Ki at Rhesus PDE2A3 (setting [1]) and on human PDE2A1 (setting [2]) were 38 nM and 29 nM, respectively.
Take `COCc1nc(C(=O)N[C@@H](c2ccc(OC(F)(F)F)cc2)C2CC2)cc(=O)[nH]1` [Example 116, N-{(R)-cyclopropyl[4-(trifluoromethoxy)phenyl]methyl}-2-(methoxymethyl)-6-oxo-1,6-dihydropyrimidine-4-carboxamide]: the values for the Ki on Rhesus PDE2A3 (setting [3]) and on human PDE2A1 (setting [4]) were 70 nM and 16 nM, respectively.
The like results for `Cc1cc(C(F)(F)F)ccc1C(C)NC(=O)c1cc(=O)[nH]c(-c2ccccc2)n1` (stereo not shown) [Example 173, N-{1-[2-methyl-4-(trifluoromethyl)phenyl]ethyl}-6-oxo-2-phenyl-1,6-dihydropyrimidine-4-carboxamide] were, in that order, 90 nM and 76 nM.
The like results for `CC(C)(NC(=O)c1cc(=O)[nH]c(-c2ccccc2)n1)c1ccc(OC(F)(F)F)cc1` [Example 281, N-{1-methyl-1-[4-(trifluoromethoxy)phenyl]ethyl}-6-oxo-2-phenyl-1,6-dihydropyrimidine-4-carboxamide] were, in that order, 133 nM and 82 nM.
The corresponding values for `Cc1nc(C(=O)N[C@@H](c2ccc(C(F)(F)F)cc2)C2CC2)cc(=O)[nH]1` [Example 69, N-{(R)-cyclopropyl[4-(trifluoromethyl)phenyl]methyl}-2-methyl-6-oxo-1,6-dihydropyrimidine-4-carboxamide] are 23 nM and 18 nM.
Regarding `Cc1nc(C(=O)N[C@H](C)c2ccc(OC(F)(F)F)cc2F)cc(=O)[nH]1` [Example 21, N-{(1R)-1-[2-fluoro-4-(trifluoromethoxy)phenyl]ethyl}-2-methyl-6-oxo-1,6-dihydropyrimidine-4-carboxamide], the Ki at Rhesus PDE2A3 (setting [3]) stood at 46 nM; on human PDE2A1 (setting [4]) it was 98 nM.
Take `COc1ccc(Cc2nc(C(=O)N[C@@H](c3ccc(SC(F)(F)F)cc3)C3CC3)cc(=O)[nH]2)cc1F` [Example 523, N-[(R)-cyclopropyl{4-[(trifluoromethyl)sulfanyl]phenyl}methyl]-2-(3-fluoro-4-methoxybenzyl)-6-oxo-1,6-dihydropyrimidine-4-carboxamide]: the Ki at Rhesus PDE2A3 (setting [1]) is 2.8 nM; on human PDE2A1 (setting [2]) it was 2.1 nM.
As to `CC(C)[C@@H](NC(=O)c1cc(=O)[nH]c(C2CC2)n1)c1ccc(SC(F)(F)F)c(F)c1` [Example 244, 2-cyclopropyl-N-[(1R)-1-{3-fluoro-4-[(trifluoromethyl)sulfanyl]phenyl}-2-methylpropyl]-6-oxo-1,6-dihydropyrimidine-4-carboxamide], the inhibition constant Ki at Rhesus PDE2A3 (setting [3]) stood at 0.99 nM; at Rhesus PDE2A3 (setting [1]), 2.4 nM; at human PDE2A1 (setting [2]), 3 nM.
On to `CC(C)(NC(=O)c1cc(=O)[nH]c(-c2ccccc2)n1)c1ccccc1Br` [Example 373, N-[1-(2-bromophenyl)-1-methylethyl]-6-oxo-2-phenyl-1,6-dihydropyrimidine-4-carboxamide], for which the Ki on Rhesus PDE2A3 (setting [3]) turned out to be 155 nM; at Rhesus PDE2A3 (setting [1]), 225 nM; on human PDE2A1 (setting [2]), 183 nM.
`CC(C)(C)[C@@H](NC(=O)c1cc(=O)[nH]c(C2CC2)n1)c1ccc(OC(F)F)cc1` [Example 436, 2-cyclopropyl-N-{(1R)-1-[4-(difluoromethoxy)phenyl]-2,2-dimethylpropyl}-6-oxo-1,6-dihydropyrimidine-4-carboxamide]: the Ki is 3.5 nM on Rhesus PDE2A3 (setting [1]) and 3.2 nM at human PDE2A1 (setting [2]).
Take `Cc1nc(C(=O)N[C@H](C)c2ccc3ccccc3c2)cc(=O)[nH]1` [Example 16, 2-methyl-N-[(1R)-1-naphthalen-2-ylethyl]-6-oxo-1,6-dihydropyrimidine-4-carboxamide]: the Ki at Rhesus PDE2A3 (setting [3]) was determined as 74 nM; at human PDE2A1 (setting [4]), 67 nM.
In the case of `Cc1nc(C(=O)NC(C)(C)c2ccc(C(F)(F)F)cc2Cl)cc(=O)[nH]1` [Example 593, N-{1-[2-chloro-4-(trifluoromethyl)phenyl]-1-methylethyl}-2-methyl-6-oxo-1,6-dihydropyrimidine-4-carboxamide], the figures for the Ki on Rhesus PDE2A3 (setting [1]) and on human PDE2A1 (setting [2]) were 11 nM and 10 nM, respectively.
As to `Cc1nc(C(=O)NC(C#N)c2ccc(C(F)(F)F)cc2)cc(=O)[nH]1` (stereo not shown) [Example 33, N-{cyano[4-(trifluoromethyl)phenyl]methyl}-2-methyl-6-oxo-1,6-dihydropyrimidine-4-carboxamide], the Ki on Rhesus PDE2A3 (setting [3]) amounted to 802 nM; at human PDE2A1 (setting [4]) it was 656 nM.
The corresponding values for `O=C(N[C@@H](c1ccc(OC(F)(F)F)cc1)C1CC1)c1cc(=O)[nH]c(C2CC2)n1` [Example 211, 2-cyclopropyl-N-{(R)-cyclopropyl[4-(trifluoromethoxy)phenyl]methyl}-6-oxo-1,6-dihydropyrimidine-4-carboxamide] are 7.1 nM and 2.5 nM.
Turning to `C[C@@H](NC(=O)c1cc(=O)[nH]c(-c2ccccc2)n1)c1ccc(C(F)(F)F)c(F)c1` [Example 148, N-{(1R)-1-[3-fluoro-4-(trifluoromethyl)phenyl]ethyl}-6-oxo-2-phenyl-1,6-dihydropyrimidine-4-carboxamide], the Ki on Rhesus PDE2A3 (setting [3]) came out at 5.2 nM; on human PDE2A1 (setting [4]), 2.6 nM.
The corresponding values for `O=C(N[C@@H](c1ccc(SC(F)(F)F)cc1)C1CC1)c1cc(=O)[nH]c(-c2ccccc2)n1` [Example 178, N-[(R)-cyclopropyl{4-[(trifluoromethyl)sulfanyl]phenyl}methyl]-6-oxo-2-phenyl-1,6-dihydropyrimidine-4-carboxamide] are 3.3 nM and 2.4 nM.
`CCc1ccc(C(C)NC(=O)c2cc(=O)[nH]c(-c3ncccn3)n2)cc1` (stereo not shown) [Example 79, N-[1-(4-ethylphenyl)ethyl]-6-oxo-1,6-dihydro-2,2′-bipyrimidine-4-carboxamide]: the Ki on Rhesus PDE2A3 (setting [3]) turned out to be 22 nM; at Rhesus PDE2A3 (setting [1]), 25 nM; on human PDE2A1 (setting [2]), 35 nM.
Regarding `O=C(NC(CCO)c1ccc(C(F)(F)F)cc1)c1cc(=O)[nH]c(-c2ccccc2)n1` (stereo not shown) [Example 421, N-{3-hydroxy-1-[4-(trifluoromethyl)phenyl]propyl}-6-oxo-2-phenyl-1,6-dihydropyrimidine-4-carboxamide], the Ki on Rhesus PDE2A3 (setting [1]) was 14 nM; at human PDE2A1 (setting [2]), 9.4 nM.
The corresponding values for `Cc1nc(C(=O)N[C@@H](c2ccc(OC(F)F)cc2)C(C)(C)C)cc(=O)[nH]1` [Example 62, (R)-N-(1-(4-(difluoromethoxy)phenyl)-2,2-dimethylpropyl)-2-methyl-6-oxo-1,6-dihydropyrimidine-4-carboxamide] are 9.8 nM and 8.3 nM.
`O=C(NC1(c2ccc(SC(F)(F)F)cc2)CCC1)c1cc(=O)[nH]c(-c2ccccc2)n1` [Example 171, 6-oxo-2-phenyl-N-(1-{4-[(trifluoromethyl)sulfanyl]phenyl}cyclobutyl)-1,6-dihydropyrimidine-4-carboxamide]: the results for the Ki at Rhesus PDE2A3 (setting [3]) and on human PDE2A1 (setting [4]) were 28 nM and 32 nM, respectively.
Turning to `COc1ccc(Cc2nc(C(=O)N[C@@H](c3ccc(SC(F)(F)F)cc3)C(C)C)cc(=O)[nH]2)cc1` [Example 469, 2-(4-methoxybenzyl)-N-[(1R)-2-methyl-1-{4-[(trifluoromethyl)sulfanyl]phenyl}propyl]-6-oxo-1,6-dihydropyrimidine-4-carboxamide], the Ki on Rhesus PDE2A3 (setting [1]) came out at 0.96 nM; at human PDE2A1 (setting [2]) it was 0.91 nM.

The values are drawn from patent publication US9815796B2 (Merck Sharp & Dohme Corp., priority 2013, dated 2017).
